From paper PMC12631002, “Bioactivity Profiles of Progressively Ring‐Fluorinated Cyclohexyl Motifs in the WKYMVm Peptide as Formylpeptide FPR2 Agonists and in Keto‐Piperazines as Antitrypanosome Agents” (Chembiochem, 2025)
Read-outs that look alike come from different tables or passages of the source. Numbered stars: 1 amine (or outer) side, 2 acyl side, 3 side chain; on linkers, the order of the positions; unused ones are H or OH. Square brackets hold non-standard residues; d marks the D form. Ends that are not written are not given here. Peptide text beside a SMILES is read from it. X3 = O=C([C@H](C[C@@H]1[C@H](F)C[C@H](F)C[C@@H]1F)N[*:1])[*:2]; X2 = O=C([C@H](C[C@@H]1C[C@H](F)C[C@H](F)C1)N[*:1])[*:2]; X1 = O=C([C@H](C[C@H]1CC[C@@H](F)CC1)N[*:1])[*:2]; Phe(F5) = N[C@@H](Cc1c(F)c(F)c(F)c(F)c1F)C(=O)O; Phe(4-F) = N[C@@H](Cc1ccc(F)cc1)C(=O)O

Key:
T. brucei [1] = assay: Trypanocidal activity against growing cells; format: cell-based, Trypanosoma brucei; conditions: for EC50: Trypanosoma brucei; for trypanocidal activity against T. brucei: comparison within series and with 29
Excerpt: (§1) Accordingly N‐Boc amino acid esters 20a–d were hydrolyzed to their free carboxylic acids 25a–d and then progressed in each case to the corresponding Weinreb–Nahm amides^[ [33] ^] 26a–d. N‐Boc deprotection followed by coupling to N‐Boc‐tryptophan generated dipeptides 27a–d as the required precursors for cyclization. The intramolecular Pictet–Spengler condensations, followed a previous protocol^[ [19] ^] and 4‐monofluoro 28a, 3,5‐difluoro‐ 28b, and 2,3,4,5,6‐pentafluoro‐ 28d keto‐piperazines could be prepared following this method. It is noteworthy that the pentafluoro‐ analog was accompanied by what appeared to be a high level of defluorinated side products, however 28d was conveniently purified by HPLC rather than column chromatography. […] Thus, 4‐monofluoro‐ 28a, 3,5‐difluoro‐ 28b, and 2,3,4,5,6‐pentafluoro‐ 28d cyclohexyl‐amino acid tryptophan diketopiperazines were prepared and explored in antitrypanosomal assays. Given the importance of molecular lipophilicity in the context of medicinal chemistry, a Log P assessment (HPLC) was made of the diketopiperazines products 28a, 28b, and 28d as illustrated in Table 1 . As anticipated, there is an increase in polarity (LogP reduction) as the number of fluorines increases. We also know from previous work[[6b]] that the Ph ring is more polar than cyclohexane but less polar than the progressively fluorinated cyclohexane rings. The keto‐piperazines 28a, 28b, and 28d were assayed^[ [20] ^] against growing cells of T. brucei and T. cruzi, as well as the human cell line, HeLa and the data is presented in Table 1.
Bioactivities assays of Janus face Tryptophan
Parasites were grown in different medium (e.g. T. brucei was grown in HMI-11 medium) with 10% heat-inactivated foetal bovine serum. parasites were counted using CASY TT Cell Counter. Fluorescence was recorded using a FLx 800 plate reader (BioTek) with an excitation wavelength 530–535 nm and emission wavelength of 590–610 nm using Gen5 Reader Control 2.0 Software (BioTek). EC50 values were determined using a 4-parameter non-linear logistic regression equation using GraFit 5.0 (Erithacus Software). SD values were calculated based on curve fitting to n biological replicates performed in parallel.

HeLa = assay: Mammalian cell activity; format: cell-based; conditions: Homo sapiens
Method: Bioactivities assays of Janus face Tryptophan […]
Fluorescence was recorded using a FLx
800 plate reader (BioTek) with an excitation wavelength 530–535 nm and emission wavelength of 590–610 nm using Gen5 Reader Control 2.0 Software (BioTek). EC50 values were determined using a 4-parameter non-linear logistic regression equation using GraFit 5.0 (Erithacus Software). SD values were calculated based on curve fitting to n biological replicates performed in parallel.

Log P assessment (HPLC) = format: physicochemical
Excerpt: as §1

FPR2 [2] = molecular target: T1, FPR2 (Homo sapiens, UniProt P25090); assay: Competition binding against K(5/6-FAM)-WKYMVm, flow cytometry; design: FLAG (N); expressed in transfected cells; conditions: for IC50: binding affinity (order of magnitude), order of magnitude
T1 sequence (P25090 1-351): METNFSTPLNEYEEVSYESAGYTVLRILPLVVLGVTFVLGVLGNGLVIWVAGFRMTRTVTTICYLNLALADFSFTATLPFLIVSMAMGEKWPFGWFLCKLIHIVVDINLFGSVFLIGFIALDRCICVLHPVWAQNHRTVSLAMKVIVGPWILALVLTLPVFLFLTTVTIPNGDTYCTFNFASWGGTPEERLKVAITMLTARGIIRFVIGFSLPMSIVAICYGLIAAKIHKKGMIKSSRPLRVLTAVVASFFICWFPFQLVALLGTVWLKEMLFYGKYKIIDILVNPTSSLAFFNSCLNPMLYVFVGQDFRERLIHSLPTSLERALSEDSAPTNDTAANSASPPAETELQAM
Method: Subsequently, mean fluorescence was measured using flow cytometry (Attune NxT). Data was expressed as a percentage of the maximum binding (i.e., no competitor) and errors were determined as a result of three independent experiments performed in duplicate (Figure 5 ).
Cell Culture and Transfection: Constructs were either transiently or stably expressed in native Human Embryonic Kidney 293 (HEK293) cells and maintained in DMEM containing 10% FCS. Transfections were performed using PEI at a ratio of DNA:PEI of 1:4 for all studies. […]
Competition Binding: Competition binding was performed using a fluorescently labelling ligand using an assay analogous to the classical radiolabelled method.[1] Briefly, human embryonic kidney 293 (HEK293) cells stably expressing human Formyl […]
and incubated for 90 min on ice in the dark to allow equilibrium binding. Subsequently, mean fluorescence was measured by flow cytometry using the Attune NxT. Data was expressed as a percentage of maximum binding (i.e. no competitor) and analysed via nonlinear regression one site model of equilibrium. IC50 values were determined using GraphPad PRISM software.

FPR2 [3] = molecular target: T2, FPR2 (Homo sapiens, UniProt P25090); assay: BRET analysis of β-arrestin 2 recruitment; format: cell-based; conditions: HEK293, FPR2-Rluc8 + β-arrestin 2-YFP, 37 °C
T2 construct: expressed in transfected cells; host or cells: HEK293, transient transfection
Method: (§2) Since these modifications of WKYMVm altered the relative affinity of the compounds to bind to FPR2, a further series of bioluminescence resonance energy transfer (BRET) assays were conducted to determine if there was any change in efficacy, specifically the ability to recruit molecular effectors such as G‐protein or β‐arrestin.^[ [28], [29] ^] Briefly, HEK293 cells were transiently transfected with FPR2‐Rluc8 (donor) in combination with and either mGsi‐Venus or β‐arrestin 2‐YFP (acceptors) and replated after 24 h into white opaque 96‐well plates. Cells were assayed 24 h later at 37 °C, in HEPES‐buffered saline solution (HBSS) with coelenterazine H (5 μM). Cells were then stimulated with increasing concentrations of WKYMVm or analogs. Luminescence and fluorescence values were measured at 460/30 nm (FPR2) and […] (mini‐Gsi or β‐arrestin protein), respectively, and the acceptor: donor ratio was determined, normalized by subtraction of the ratio observed in untreated cells (Figure 7 ). […]
(§3) BRET analysis of β-Arrestin and mini-Gsi recruitment: HEK293 cells were grown on 6 well plates until 90-95% confluency was reached. […] Cells were then stimulated with increasing concentrations of WKYMVm and analysed using ClarioStar Plus plate reader (BMG Labtech) at 10 minutes post agonist addition. […]
T2 sequence (P32121 whole entry partner, one chain of several): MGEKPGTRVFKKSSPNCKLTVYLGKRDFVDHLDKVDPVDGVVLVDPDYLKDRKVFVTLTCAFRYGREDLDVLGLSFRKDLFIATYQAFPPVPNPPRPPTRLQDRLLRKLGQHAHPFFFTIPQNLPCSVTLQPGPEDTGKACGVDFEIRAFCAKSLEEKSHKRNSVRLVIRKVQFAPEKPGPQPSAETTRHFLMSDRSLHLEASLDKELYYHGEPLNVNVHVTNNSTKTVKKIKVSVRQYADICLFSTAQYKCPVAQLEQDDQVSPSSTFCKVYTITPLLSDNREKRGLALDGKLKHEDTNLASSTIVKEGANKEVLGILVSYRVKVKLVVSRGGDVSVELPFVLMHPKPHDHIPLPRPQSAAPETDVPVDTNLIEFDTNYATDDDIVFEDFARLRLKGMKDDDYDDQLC

FPR2 [4] = molecular target: T1, FPR2; assay: BRET analysis of mini-Gsi recruitment; format: cell-based; design: expressed in transfected cells; host or cells: HEK293, transient transfection; conditions: HEK293, FPR2-Rluc8 + mGsi-Venus, 37 °C
Method: as §2, §3

T. brucei [5] = test system: T. brucei; design: method as in PMID 34927802; conditions: previously reported; cited from earlier work
[6] = design: method as in PMID 29732086; conditions: ref 6a; cited from earlier work
[7] = molecular target: T3, formyl-peptide receptor type 2 (FPR2), on HEK293 cells (human, UniProt P25090 1-351); assay: FACS; competition with K(5/6-FAM)-WKYMVm; printed as Log IC50 -7.24
T3 chain: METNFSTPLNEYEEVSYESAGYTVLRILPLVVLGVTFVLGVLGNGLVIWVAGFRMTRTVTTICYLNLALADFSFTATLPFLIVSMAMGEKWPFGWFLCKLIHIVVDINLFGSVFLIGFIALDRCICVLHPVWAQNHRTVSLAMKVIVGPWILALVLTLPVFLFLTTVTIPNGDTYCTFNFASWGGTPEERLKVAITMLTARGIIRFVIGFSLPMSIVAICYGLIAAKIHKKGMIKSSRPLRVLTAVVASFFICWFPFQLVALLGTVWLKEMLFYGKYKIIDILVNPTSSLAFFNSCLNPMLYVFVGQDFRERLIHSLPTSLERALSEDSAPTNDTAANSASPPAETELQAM

[8] = molecular target: T3, formyl-peptide receptor type 2 (FPR2), …; assay: FACS; competition with K(5/6-FAM)-WKYMVm; printed as Log IC50 -5.80
[9] = molecular target: T3, formyl-peptide receptor type 2 (FPR2), …; assay: FACS; competition with K(5/6-FAM)-WKYMVm; printed as Log IC50 -5.33
[10] = molecular target: T3, formyl-peptide receptor type 2 (FPR2), …; assay: FACS; competition with K(5/6-FAM)-WKYMVm; printed as Log IC50 -6.29

O=C1NC(CC2CCC(F)CC2)C2NC1Cc1c2[nH]c2ccccc12 (stereo not shown) [28a]
EC50 (T. brucei [1]): 10.7 ± 0.46 µM
trypanocidal activity against T. brucei (T. brucei [1]): best compound
EC50 (HeLa): 105 ± 6.25 µM
chromatographic logP (Log P assessment (HPLC)): 3.02

CSCC[C@H](NC(=O)[C@H](Cc1c(F)c(F)c(F)c(F)c1F)NC(=O)[C@H](CCCCN)NC(=O)[C@@H](N)Cc1c[nH]c2ccccc12)C(=O)N[C@H](C(=O)N[C@H](CCSC)C(N)=O)C(C)C [compound 25] (H-WK[Phe(F5)]MV[dM]-NH2)
IC50 (FPR2 [2]): ~1000 nM

CSCC[C@H](NC(=O)[C@H](C[C@@H]1C[C@H](F)C[C@H](F)C1)NC(=O)[C@H](CCCCN)NC(=O)[C@@H](N)Cc1c[nH]c2ccccc12)C(=O)N[C@H](C(=O)N[C@H](CCSC)C(N)=O)C(C)C [23b] (H-WK[X2]MV[dM]-NH2)
IC50 (FPR2 [2]): ~100 nM

CSCC[C@H](NC(=O)[C@H](C[C@@H]1[C@H](F)C[C@H](F)C[C@@H]1F)NC(=O)[C@H](CCCCN)NC(=O)[C@@H](N)Cc1c[nH]c2ccccc12)C(=O)N[C@H](C(=O)N[C@H](CCSC)C(N)=O)C(C)C [23c] (H-WK[X3]MV[dM]-NH2)
IC50 (FPR2 [2]): ~1000 nM

CSCC[C@H](NC(=O)[C@H](Cc1ccc(O)cc1)NC(=O)[C@H](CCCCN)NC(=O)[C@@H](N)Cc1c[nH]c2ccccc12)C(=O)N[C@H](C(=O)N[C@H](CCSC)C(N)=O)C(C)C [compound 13, Trp‐Lys‐Tyr‐Met‐Val‐D‐Met‐NH2, reference compound]
efficacy of β-arrestin recruitment (FPR2 [3]): most efficacious
efficacy of Gi (mini-Gsi) recruitment (FPR2 [4]): most efficacious

O=C1NC(Cc2ccccc2)C2NC1Cc1c2[nH]c2ccccc12 (stereo not shown) [compound 29]
EC50 (T. brucei [5]): 52.1 ± 3.5 µM

O=C1NC(CC2C(F)C(F)C(F)C(F)C2F)C2NC1Cc1c2[nH]c2ccccc12 (stereo not shown) [28d]
EC50 (T. brucei [1]): 22 ± 2.12 µM
trypanocidal activity against T. brucei (T. brucei [1]): least active compound
chromatographic logP (Log P assessment (HPLC)): 2.58

CSCC[C@H](NC(=O)[C@H](Cc1ccc(F)cc1)NC(=O)[C@H](CCCCN)NC(=O)[C@@H](N)Cc1c[nH]c2ccccc12)C(=O)N[C@H](C(=O)N[C@H](CCSC)C(N)=O)C(C)C [compound 24] (H-WK[Phe(4-F)]MV[dM]-NH2)
IC50 (FPR2 [2]): ~100 nM

COC(=O)C=CC(CC1CCNC1=O)NC(=O)C(CC1C(F)C(F)C(F)C(F)C1F)NC(=O)C=Cc1ccccc1 (stereo not shown) [compound 9]
Log P [6]: 1.21

O=CC(CC1CCNC1=O)NC(=O)C(CC1C(F)C(F)C(F)C(F)C1F)NC(=O)c1cc2ccccc2[nH]1 (stereo not shown) [compound 8]
Log P [6]: 0.69

CSCC[C@H](NC(=O)[C@H](C[C@H]1CC[C@@H](F)CC1)NC(=O)[C@H](CCCCN)NC(=O)[C@@H](N)Cc1c[nH]c2ccccc12)C(=O)N[C@H](C(=O)N[C@H](CCSC)C(N)=O)C(C)C [23a] (H-WK[X1]MV[dM]-NH2; N-terminus assumed)
efficacy of β-arrestin recruitment (FPR2 [3]): comparable efficacy
relative binding affinity (FPR2 [2]; comparison within the peptide series): highest affinity but significantly weaker than that of the WKYMVm 13
efficacy of Gi (mini-Gsi) recruitment (FPR2 [4]): comparable efficacy

O=C1NC(CC2CC(F)CC(F)C2)C2NC1Cc1c2[nH]c2ccccc12 (stereo not shown) [28b]
EC50 (T. brucei [1]): 11.3 ± 0.73 µM
chromatographic logP (Log P assessment (HPLC)): 2.92

B1: W-peptide analog 24 (4-fluorophenylalanine in place of Tyr3 of WKYMVm) (peptide)
peptide: WK[Phe(4-F)]MV[dM]-NH2
modifications: N-terminus assumed
SMILES: CSCC[C@H](NC(=O)[C@H](Cc1ccc(F)cc1)NC(=O)[C@H](CCCCN)NC(=O)[C@@H](N)Cc1c[nH]c2ccccc12)C(=O)N[C@H](C(=O)N[C@H](CCSC)C(N)=O)C(C)C
notes: last residue D-methionine; also called 4-fluorophenyl-modified peptide 24; 4-fluorophenylalanine analog 24; source: synthetic peptide (microwave-assisted SPPS, preparative HPLC)
IC50 [7]: 57.5 nM

WK[all‑cis trifluorocyclohexylalanine]MV[dM]-NH2 [W-peptide analog 23c (all-cis trifluorocyclohexylalanine in place of Tyr3 of WKYMVm)]
IC50 [8]: 1580 nM

WK[all‑cis pentafluorocyclohexylalanine]MV[dM]-NH2 [W-peptide analog 23d (all-cis pentafluorocyclohexylalanine in place of Tyr3 of WKYMVm)]
IC50 [9]: 4.68 µM

B2: W-peptide analog 25 (pentafluoroaryl phenylalanine in place of Tyr3 of WKYMVm) (peptide)
peptide: WK[Phe(F5)]MV[dM]-NH2
modifications: N-terminus assumed
SMILES: CSCC[C@H](NC(=O)[C@H](Cc1c(F)c(F)c(F)c(F)c1F)NC(=O)[C@H](CCCCN)NC(=O)[C@@H](N)Cc1c[nH]c2ccccc12)C(=O)N[C@H](C(=O)N[C@H](CCSC)C(N)=O)C(C)C
notes: last residue D-methionine; also called pentafluoroaryl motif; source: synthetic peptide (microwave-assisted SPPS, preparative HPLC)
IC50 [10]: 513 nM
